How the values were obtained:
Assay in all cases: radiometric filter-binding kinase assay, Kinase HotSpot
Details in all cases: compound 0.5 µM; ATP 10 µM
STK24 (human) = STK24 (human) (UniProt Q9Y6E0)
MAPK3 (human) = MAPK3 (human) (UniProt P27361)
PTK6 (human) = PTK6 (human) (UniProt Q13882)
WNK3 (human) = WNK3 (human) (UniProt Q9BYP7)
HIPK3 (human) = HIPK3 (human) (UniProt Q9H422)
CHUK (human) = CHUK (human) (UniProt O15111)
NEK9 (human) = NEK9 (human) (UniProt Q8TD19)
TLK2 (human) = TLK2 (human) (UniProt Q86UE8)
PRKCH (human) = PRKCH (human) (UniProt P24723)
MAP4K4 (human) = MAP4K4 (human) (UniProt O95819)
MAPKAPK3 (human) = MAPKAPK3 (human) (UniProt Q16644)
ULK3 (human) = ULK3 (human) (UniProt Q6PHR2)
PRKCB2 (human) = PRKCB2 (human) (UniProt P05771)
STK38 (human) = STK38 (human) (UniProt Q15208)
MAPK11 (human) = MAPK11 (human) (UniProt Q15759)
TGFBR2 (human) = TGFBR2 (human) (UniProt P37173)
GSK3B (human) = GSK3B (human) (UniProt P49841)
RPS6KA6 KD1 KD2 (human) = RPS6KA6 KD1 KD2 (human) (UniProt Q9UK32)
EPHA3 (human) = EPHA3 (human) (UniProt P29320)
DMPK (human) = DMPK (human) (UniProt Q09013)
CLK3 (human) = CLK3 (human) (UniProt P49761)
CSNK1D (human) = CSNK1D (human) (UniProt P48730)
PTK2B (human) = PTK2B (human) (UniProt Q14289)
PAK1 (human) = PAK1 (human) (UniProt Q13153)
IKBKB (human) = IKBKB (human) (UniProt O14920)
RAF1 (human) = RAF1 (human) (UniProt P04049)
EPHA6 (human) = EPHA6 (human) (UniProt Q9UF33)
MAP4K5 (human) = MAP4K5 (human) (UniProt Q9Y4K4)
DAPK3 (human) = DAPK3 (human) (UniProt O43293)
CDK6 CCND3 (human) = CDK6 CCND3 (human) (UniProt P30281+Q00534)
SRPK2 (human) = SRPK2 (human) (UniProt P78362)
MAP3K7 TAB1 (human) = MAP3K7 TAB1 (human) (UniProt O43318+Q15750)
PRKACA (human) = PRKACA (human) (UniProt P17612)
PDPK1 (human) = PDPK1 (human) (UniProt O15530)
NUAK2 (human) = NUAK2 (human) (UniProt Q9H093)
CAMK1 (human) = CAMK1 (human) (UniProt Q14012)
CDK1 CCNA2 (human) = CDK1 CCNA2 (human) (UniProt P06493+P20248)
IKBKE (human) = IKBKE (human) (UniProt Q14164)
MAPK10 (human) = MAPK10 (human) (UniProt P53779)
SYK (human) = SYK (human) (UniProt P43405)
MAP3K8 (human) = MAP3K8 (human) (UniProt P41279)

Sequence of EPHA6 (human) (Q9UF33 whole entry, looked up): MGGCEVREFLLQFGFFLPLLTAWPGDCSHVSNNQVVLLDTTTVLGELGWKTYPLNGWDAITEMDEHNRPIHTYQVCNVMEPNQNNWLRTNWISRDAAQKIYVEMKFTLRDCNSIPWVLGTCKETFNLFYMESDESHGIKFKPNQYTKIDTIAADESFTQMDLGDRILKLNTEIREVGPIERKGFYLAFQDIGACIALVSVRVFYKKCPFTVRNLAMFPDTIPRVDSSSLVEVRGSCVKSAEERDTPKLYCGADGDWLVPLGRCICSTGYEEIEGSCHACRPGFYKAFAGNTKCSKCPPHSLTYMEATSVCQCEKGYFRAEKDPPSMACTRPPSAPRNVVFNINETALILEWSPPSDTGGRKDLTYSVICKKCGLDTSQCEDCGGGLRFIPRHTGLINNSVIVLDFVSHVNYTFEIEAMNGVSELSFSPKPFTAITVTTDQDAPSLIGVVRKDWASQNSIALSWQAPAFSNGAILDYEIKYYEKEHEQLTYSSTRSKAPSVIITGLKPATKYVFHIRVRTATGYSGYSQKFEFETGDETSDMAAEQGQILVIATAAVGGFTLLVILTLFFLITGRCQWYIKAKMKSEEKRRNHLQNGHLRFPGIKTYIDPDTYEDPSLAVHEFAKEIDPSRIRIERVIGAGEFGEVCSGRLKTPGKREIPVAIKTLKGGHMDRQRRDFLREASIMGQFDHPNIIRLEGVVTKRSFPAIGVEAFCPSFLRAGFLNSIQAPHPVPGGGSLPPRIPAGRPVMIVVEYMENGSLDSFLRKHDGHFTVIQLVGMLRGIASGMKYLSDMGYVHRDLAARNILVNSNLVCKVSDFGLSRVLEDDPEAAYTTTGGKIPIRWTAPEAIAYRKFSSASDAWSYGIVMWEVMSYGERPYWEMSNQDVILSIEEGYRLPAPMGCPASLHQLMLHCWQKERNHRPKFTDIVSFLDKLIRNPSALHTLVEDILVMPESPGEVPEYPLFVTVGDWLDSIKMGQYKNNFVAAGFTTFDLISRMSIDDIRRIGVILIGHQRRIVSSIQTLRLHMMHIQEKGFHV
Sequence of PRKCB2 (human) (P05771 whole entry, looked up): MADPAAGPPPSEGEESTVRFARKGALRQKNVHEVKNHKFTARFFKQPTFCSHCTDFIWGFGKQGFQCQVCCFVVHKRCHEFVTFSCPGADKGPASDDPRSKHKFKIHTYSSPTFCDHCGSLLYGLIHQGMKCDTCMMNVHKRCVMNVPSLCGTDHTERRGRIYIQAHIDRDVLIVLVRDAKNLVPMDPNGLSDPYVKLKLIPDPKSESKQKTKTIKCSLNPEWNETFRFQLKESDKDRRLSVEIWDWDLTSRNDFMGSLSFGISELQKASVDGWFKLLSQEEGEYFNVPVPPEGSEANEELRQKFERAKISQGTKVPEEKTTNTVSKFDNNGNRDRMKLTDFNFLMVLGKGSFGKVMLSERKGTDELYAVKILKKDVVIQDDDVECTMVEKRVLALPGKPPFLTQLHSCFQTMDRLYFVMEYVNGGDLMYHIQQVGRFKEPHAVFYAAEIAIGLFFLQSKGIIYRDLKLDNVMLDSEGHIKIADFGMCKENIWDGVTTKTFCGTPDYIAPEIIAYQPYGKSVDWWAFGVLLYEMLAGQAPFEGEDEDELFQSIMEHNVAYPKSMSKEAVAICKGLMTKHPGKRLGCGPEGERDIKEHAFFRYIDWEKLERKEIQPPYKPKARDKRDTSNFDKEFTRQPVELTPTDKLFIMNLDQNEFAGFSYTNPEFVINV
Sequence of PAK1 (human) (Q13153 whole entry, looked up): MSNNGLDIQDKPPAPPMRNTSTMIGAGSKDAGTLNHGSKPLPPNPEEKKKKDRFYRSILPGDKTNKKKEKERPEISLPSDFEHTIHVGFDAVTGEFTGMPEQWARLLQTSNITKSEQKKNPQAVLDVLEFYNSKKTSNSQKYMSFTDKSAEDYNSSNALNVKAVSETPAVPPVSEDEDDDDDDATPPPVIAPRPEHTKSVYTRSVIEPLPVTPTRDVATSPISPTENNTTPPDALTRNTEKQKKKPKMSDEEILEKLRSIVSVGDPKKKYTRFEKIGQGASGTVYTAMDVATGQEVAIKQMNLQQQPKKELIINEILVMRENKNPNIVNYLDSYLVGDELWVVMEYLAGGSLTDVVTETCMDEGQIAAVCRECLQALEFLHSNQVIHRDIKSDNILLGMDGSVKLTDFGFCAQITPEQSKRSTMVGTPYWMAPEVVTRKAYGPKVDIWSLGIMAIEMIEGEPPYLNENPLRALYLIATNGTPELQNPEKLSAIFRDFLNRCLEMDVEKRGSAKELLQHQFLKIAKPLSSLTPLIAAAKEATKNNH
Sequence of TGFBR2 (human) (P37173 whole entry, looked up): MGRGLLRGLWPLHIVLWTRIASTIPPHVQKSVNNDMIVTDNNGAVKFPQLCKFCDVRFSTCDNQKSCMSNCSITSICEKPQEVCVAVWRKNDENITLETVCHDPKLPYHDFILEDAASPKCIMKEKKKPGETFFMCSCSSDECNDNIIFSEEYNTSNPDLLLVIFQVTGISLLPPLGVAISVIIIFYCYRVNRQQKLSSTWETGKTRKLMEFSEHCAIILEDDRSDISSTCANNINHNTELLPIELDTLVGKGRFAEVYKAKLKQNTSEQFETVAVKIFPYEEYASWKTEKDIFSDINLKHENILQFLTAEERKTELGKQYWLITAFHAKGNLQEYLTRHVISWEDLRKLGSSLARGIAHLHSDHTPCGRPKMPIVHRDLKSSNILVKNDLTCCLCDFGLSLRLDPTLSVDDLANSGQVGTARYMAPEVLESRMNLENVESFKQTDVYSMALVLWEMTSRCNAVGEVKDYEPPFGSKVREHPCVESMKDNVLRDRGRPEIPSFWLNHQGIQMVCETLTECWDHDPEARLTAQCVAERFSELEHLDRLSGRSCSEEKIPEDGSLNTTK
Sequence of EPHA3 (human) (P29320 whole entry, looked up): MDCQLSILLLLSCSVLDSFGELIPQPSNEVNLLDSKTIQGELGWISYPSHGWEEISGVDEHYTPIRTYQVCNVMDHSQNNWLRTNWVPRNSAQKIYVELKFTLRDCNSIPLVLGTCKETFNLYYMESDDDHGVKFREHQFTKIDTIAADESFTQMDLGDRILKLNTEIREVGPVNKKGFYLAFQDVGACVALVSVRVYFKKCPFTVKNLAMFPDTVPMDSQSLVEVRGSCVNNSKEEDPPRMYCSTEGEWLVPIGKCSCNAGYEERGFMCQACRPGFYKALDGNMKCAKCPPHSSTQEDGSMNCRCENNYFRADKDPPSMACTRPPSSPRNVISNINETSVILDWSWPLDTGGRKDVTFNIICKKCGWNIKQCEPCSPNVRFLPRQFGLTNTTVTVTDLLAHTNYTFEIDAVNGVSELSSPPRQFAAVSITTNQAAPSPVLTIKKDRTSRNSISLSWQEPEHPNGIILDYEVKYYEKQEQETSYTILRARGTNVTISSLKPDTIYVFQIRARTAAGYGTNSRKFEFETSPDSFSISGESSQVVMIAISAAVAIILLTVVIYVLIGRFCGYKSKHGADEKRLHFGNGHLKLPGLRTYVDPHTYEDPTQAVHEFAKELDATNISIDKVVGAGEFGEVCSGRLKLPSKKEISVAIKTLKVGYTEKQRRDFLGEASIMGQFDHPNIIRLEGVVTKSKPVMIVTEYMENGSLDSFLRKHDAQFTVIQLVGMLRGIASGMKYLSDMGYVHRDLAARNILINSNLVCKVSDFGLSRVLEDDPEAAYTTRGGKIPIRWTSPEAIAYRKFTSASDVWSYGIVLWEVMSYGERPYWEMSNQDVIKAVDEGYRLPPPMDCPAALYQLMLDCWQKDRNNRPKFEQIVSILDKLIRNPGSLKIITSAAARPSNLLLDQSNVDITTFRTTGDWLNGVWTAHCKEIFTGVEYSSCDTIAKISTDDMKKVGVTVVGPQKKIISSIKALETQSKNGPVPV
Sequence of PDPK1 (human) (O15530 whole entry, looked up): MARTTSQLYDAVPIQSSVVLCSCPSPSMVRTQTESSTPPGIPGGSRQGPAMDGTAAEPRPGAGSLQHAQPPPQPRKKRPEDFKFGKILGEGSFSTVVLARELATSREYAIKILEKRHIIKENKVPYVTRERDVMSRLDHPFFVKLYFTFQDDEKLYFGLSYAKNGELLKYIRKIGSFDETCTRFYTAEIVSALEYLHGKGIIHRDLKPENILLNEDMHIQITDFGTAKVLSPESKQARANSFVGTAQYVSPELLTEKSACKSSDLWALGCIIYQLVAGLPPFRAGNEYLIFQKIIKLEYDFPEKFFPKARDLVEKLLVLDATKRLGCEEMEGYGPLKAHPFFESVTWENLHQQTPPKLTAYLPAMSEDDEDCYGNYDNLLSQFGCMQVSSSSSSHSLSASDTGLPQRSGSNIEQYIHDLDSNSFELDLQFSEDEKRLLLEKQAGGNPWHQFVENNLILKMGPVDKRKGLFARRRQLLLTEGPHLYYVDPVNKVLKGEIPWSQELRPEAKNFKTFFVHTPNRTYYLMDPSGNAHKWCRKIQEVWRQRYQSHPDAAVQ
Sequence of STK38 (human) (Q15208 whole entry, looked up): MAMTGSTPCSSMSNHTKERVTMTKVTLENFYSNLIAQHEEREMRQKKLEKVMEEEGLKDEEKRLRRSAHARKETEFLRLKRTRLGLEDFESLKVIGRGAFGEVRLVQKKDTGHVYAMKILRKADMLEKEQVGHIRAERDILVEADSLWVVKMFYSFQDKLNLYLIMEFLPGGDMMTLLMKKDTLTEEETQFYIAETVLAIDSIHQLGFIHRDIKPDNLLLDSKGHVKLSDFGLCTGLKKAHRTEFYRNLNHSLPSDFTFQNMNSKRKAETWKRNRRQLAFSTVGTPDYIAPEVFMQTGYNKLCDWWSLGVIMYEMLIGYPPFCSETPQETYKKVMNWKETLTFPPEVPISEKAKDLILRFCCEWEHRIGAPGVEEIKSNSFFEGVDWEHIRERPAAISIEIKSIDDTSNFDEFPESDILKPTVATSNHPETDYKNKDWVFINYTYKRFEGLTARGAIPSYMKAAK

CS(=O)(=O)CCNCc1ccc(-c2ccc3ncnc(Nc4ccc(OCc5cccc(F)c5)c(Cl)c4)c3c2)o1
residual activity (STK24 (human)): 106% | residual activity (MAPK3 (human)): 94.8% | residual activity (PTK6 (human)): 103% | residual activity (WNK3 (human)): 104% | residual activity (HIPK3 (human)): 99.1% | residual activity (CHUK (human)): 99.5% | residual activity (NEK9 (human)): 100% | residual activity (TLK2 (human)): 83.9% | residual activity (PRKCH (human)): 110% | residual activity (MAP4K4 (human)): 111% | residual activity (MAPKAPK3 (human)): 103% | residual activity (ULK3 (human)): 106% | residual activity (PRKCB2 (human)): 99.8% | residual activity (STK38 (human)): 101% | residual activity (MAPK11 (human)): 101% | residual activity (TGFBR2 (human)): 96.1% | residual activity (GSK3B (human)): 103% | residual activity (RPS6KA6 KD1 KD2 (human)): 108% | residual activity (EPHA3 (human)): 98.2% | residual activity (DMPK (human)): 94.7% | residual activity (CLK3 (human)): 107% | residual activity (CSNK1D (human)): 91.2% | residual activity (PTK2B (human)): 101% | residual activity (PAK1 (human)): 110% | residual activity (IKBKB (human)): 81% | residual activity (RAF1 (human)): 85.9% | residual activity (EPHA6 (human)): 115% | residual activity (MAP4K5 (human)): 109% | residual activity (DAPK3 (human)): 97.4% | residual activity (CDK6 CCND3 (human)): 120% | residual activity (SRPK2 (human)): 88% | residual activity (MAP3K7 TAB1 (human)): 89% | residual activity (PRKACA (human)): 96% | residual activity (PDPK1 (human)): 86.4% | residual activity (NUAK2 (human)): 95.1% | residual activity (CAMK1 (human)): 102% | residual activity (CDK1 CCNA2 (human)): 101% | residual activity (IKBKE (human)): 94.9% | residual activity (MAPK10 (human)): 100% | residual activity (SYK (human)): 113% | residual activity (MAP3K8 (human)): 99.7%

Fc1ccc(-c2nc3n(c2-c2ccncc2)CCS3)cc1
residual activity (STK24 (human)): 94.2% | residual activity (MAPK3 (human)): 103% | residual activity (PTK6 (human)): 84.8% | residual activity (WNK3 (human)): 105% | residual activity (HIPK3 (human)): 109% | residual activity (CHUK (human)): 104% | residual activity (NEK9 (human)): 102% | residual activity (TLK2 (human)): 94.7% | residual activity (PRKCH (human)): 87.4% | residual activity (MAP4K4 (human)): 72.3% | residual activity (MAPKAPK3 (human)): 95.5% | residual activity (ULK3 (human)): 79.2% | residual activity (PRKCB2 (human)): 87.2% | residual activity (STK38 (human)): 88% | residual activity (MAPK11 (human)): 97.2% | residual activity (TGFBR2 (human)): 137% | residual activity (GSK3B (human)): 105% | residual activity (RPS6KA6 KD1 KD2 (human)): 115% | residual activity (EPHA3 (human)): 112% | residual activity (DMPK (human)): 102% | residual activity (CLK3 (human)): 94.4% | residual activity (CSNK1D (human)): 6.99% | residual activity (PTK2B (human)): 106% | residual activity (PAK1 (human)): 96.1% | residual activity (IKBKB (human)): 105% | residual activity (RAF1 (human)): 91.1% | residual activity (EPHA6 (human)): 94.7% | residual activity (MAP4K5 (human)): 98.7% | residual activity (DAPK3 (human)): 100% | residual activity (CDK6 CCND3 (human)): 108% | residual activity (MAP3K7 TAB1 (human)): 92.2% | residual activity (PDPK1 (human)): 109% | residual activity (NUAK2 (human)): 135% | residual activity (CAMK1 (human)): 107% | residual activity (CDK1 CCNA2 (human)): 94.7% | residual activity (IKBKE (human)): 101% | residual activity (MAPK10 (human)): 116% | residual activity (SYK (human)): 98.3% | residual activity (MAP3K8 (human)): 88.1%

Cc1cncc2cccc(S(=O)(=O)N3CCCN(C(=O)CN)C[C@H]3C)c12
residual activity (STK24 (human)): 92.4% | residual activity (MAPK3 (human)): 103% | residual activity (PTK6 (human)): 87.8% | residual activity (WNK3 (human)): 97.3% | residual activity (HIPK3 (human)): 105% | residual activity (CHUK (human)): 105% | residual activity (NEK9 (human)): 98.6% | residual activity (TLK2 (human)): 97.7% | residual activity (PRKCH (human)): 34.4% | residual activity (MAP4K4 (human)): 87.6% | residual activity (MAPKAPK3 (human)): 98.8% | residual activity (ULK3 (human)): 83.2% | residual activity (PRKCB2 (human)): 91.3% | residual activity (STK38 (human)): 97.1% | residual activity (MAPK11 (human)): 101% | residual activity (TGFBR2 (human)): 132% | residual activity (RPS6KA6 KD1 KD2 (human)): 105% | residual activity (EPHA3 (human)): 98.7% | residual activity (DMPK (human)): 105% | residual activity (CLK3 (human)): 95.9% | residual activity (CSNK1D (human)): 107% | residual activity (PTK2B (human)): 92.5% | residual activity (PAK1 (human)): 98.1% | residual activity (IKBKB (human)): 109% | residual activity (RAF1 (human)): 95.1% | residual activity (EPHA6 (human)): 92.2% | residual activity (MAP4K5 (human)): 103% | residual activity (DAPK3 (human)): 90.4% | residual activity (CDK6 CCND3 (human)): 104% | residual activity (SRPK2 (human)): 97.1% | residual activity (MAP3K7 TAB1 (human)): 94.9% | residual activity (PRKACA (human)): 99.5% | residual activity (PDPK1 (human)): 97.8% | residual activity (NUAK2 (human)): 125% | residual activity (CAMK1 (human)): 102% | residual activity (CDK1 CCNA2 (human)): 89.2% | residual activity (IKBKE (human)): 95% | residual activity (MAPK10 (human)): 103% | residual activity (SYK (human)): 100% | residual activity (MAP3K8 (human)): 99.9%
